Laboratory results as given in US20230013402A1, “REGENERATING FUNCTIONS AND PHENOTYPES OF CONNECTIVE TISSUE THROUGH NPAS2 SUPPRESSION” (The Regents of the University of California, priority 2019, published 2023).
Entries after “also recorded” stand apart in the source; their conditions may differ.

Key:
[1] = system: osteocalcin (Ocn), osteopontin (Opn), Bmal1 expression; assay: Real time RT-PCR of osteogenic and clock genes in BMSC (MSC); assay type: cell-based, mouse
Description: (§1) FIGS. 7A-7B show the effect of Reserpine on bone marrow stromal cells osteogenic differentiation. […] Bars: Tukey analysis with p<0.05. […] The expression values were normalized with day 0 RNA.
(§2) FIGS. 11A-11D(b) show results of in vitro biological assays of Npas2 suppressing compound Dwn1 (Reserpine).
(§3) Reserpine was selected and its effect on bone marrow stromal cells (BMSC) was characterized for osteogenic differentiation.
(§4) The small molecule compound that scored the best combined z score in Example 2, Dwn1 (Reserpine) was selected for in vitro biological assays. […] BMP-2 has been used as a gold standard for accelerated osteogenic differentiation of MSC (48, 49). […] The expression of core clock gene Bmal1 was not affected by Dwn1 (FIG. 11C). Dwn1 increased in vitro mineralization of Npas2+/− MSC, but not of Npas2−/− MSC (FIG. 11D), implying that the effect of Dwn1 (Reserpine) was facilitated primarily by Npas2 suppression.

fibroblasts = assay: In vitro wound healing: scratch fibroblast migration and collagen gel contraction; assay type: cell-based, mouse; settings: listed as Dwn1
Description: The in vitro wound healing ability of Dwn1 was tested using a previously described method.
Fibroblasts were seeded into a 6-well plate and were synchronized as above. After 2 hr, scratch lines were created with a 20 μL plastic pipette and were washed with medium (n=5 per group). These scratched areas were captured by time-lapse photomicrography every hour from 0 to 24 hr. The number of migrated cells into the scratched area was counted at 12 and 24 hr and compared by one-way ANOVA with post hoc Holm test.
The floating collagen gel contraction assay was performed following the previously established protocol with some modifications (Ngo et al., 2006). A 500 μL aliquot of collagen gel mixture (Collagen Type I, Corning, Manassas, Va.) containing fibroblasts (50,000 cells) was applied to a 24-well plate (n=5 in each group) and placed at room temperature for 20 min. The solidified gels were transferred to a 100 mm diameter dish and cultured (37_C, 5% CO2 in a humidified incubator). The gel images were scanned by a scanner at 0, 6, 12, 24, 48, and 72 hr. The collagen gel area at each time point was measured (NIH ImageJ ver.1.51) and compared by two-way ANOVA, followed by the Tukey test at each time point.
As described herein, a small molecule inhibitor of Neuronal PAS domain 2 (Npas2), Dwn1, improves wound healing and minimizes scarring.

[2] = system: bone marrow stromal cells (BMSC); assay: In vitro mineralization / osteogenic differentiation of BMSC (MSC) in osteogenic medium; assay type: cell-based, mouse
Description: as §1, §2, §3
To evaluate the mechanism of action involving Npas2, Reserpine was applied to WT, Npas2+/− and Npas2−/− mouse BMSC and evaluated for in vitro osteogenic differentiation.
as §4

[3] = system: murine dermal fibroblasts; assay: Collagen synthesis by picrosirius red staining; assay type: cell-based, mouse; settings: day 7; 1 μM or 10 μM; vs control and 50 μg AA
Description: The effects of two different concentrations of Dwn1 (1 μM or 10 μM) on collagen synthesis in murine dermal fibroblast in vitro were examined Murine dermal fibroblasts were seeded into 24-well plates and cultured at 80%-90% confluency in medium supplemented with ascorbic acid (50 μg/mL) for 1, 3, and 7 days. The cells were then fixed with 10% neutral buffered formalin and stained with Picrosirius red (PolyScience, Niles, Ill.) for visualizing the collagen. AA: 1-ascorbic acid. OD: optical density. CTRL: cell treated with control medium without AA. […] (FIG. 35A) The absorption value was read in a spectrophotometer at 550 nm with a plate reader ([…] H1 plate reader) and compared by one-way ANOVA with the post hoc Holm test.

skin split wound = assay: Skin split (linear) wound/scar model with suture; assay type: in vivo, mouse; settings: Dwn1 in 10% DMSO with suture vs suture only and suture plus vehicle
Description: To test in vivo wound healing using Dwn1, a 1.5 by 10 millimeter skin split model was created with a suture in the middle and three groups were designed. This model is similar to a clinical situation of a skin wound. When the skin was sutured only, visible wound healing was not effective. A suture and vehicle control with 10% DMSO, in the clinical observation, wound healing was visibly better than suture only. It is hypothesized that the moisture of vehicle may improve wound healing.
Masson trichrome staining was used to stain collagen deposition blue. Thick blue collagen deposition was found not only in granulation tissue but also in the peripheral wound. The histological staining for the vehicle control with 10% DMSO, was similar to control. Thick collagen deposition was observed.
Vertical wounds (10×1.5 mm) were made on both left and right sides of the back of a mouse with a double-bladed scalpel. One ligation was performed at the center of the wound with 5-0 nylon suture. (FIG. 33A) Visual Analogue Scale (VAS) was scored everyday postoperatively until postoperative day 7 using gross images of the wounds/scars (FIG. 33A), and postoperative gross images of the wounds/scars were measured with a ruler. […] (FIG. 33D) Scar Index was evaluated using HE stained slices. (FIG. 33E) The % area of fibrous tissue was evaluated using MT stained slices. […]

Npas2-LacZ expression = assay: Titration assay: effective concentration by LacZ expression in MSC Npas2-LacZ; assay type: cell-based, mouse; settings: serial dilution 100 μM to 0.2 nM
Description: Dwn1 was serially diluted from 100 μM to 0.2 nM and applied to MSC Npas2-LacZ. Effective concentration (EC) was determined by LacZ expression and inhibitory concentration (IC) was determined by cell viability using Calcein AM/Hoechst 33342 staining DwnC and Dwn1 are both Reserpine.
Dwn1 was identical to the previously identified DwnC compound from the LOPAC library. Dwn1 compound (Reserpine) was selected for serial dilution analysis. […] Dwn1 was used for preliminary in vitro and in vivo studies described below. Additional compounds suppressing Npas2 were identified (Table 2).
Dwn1 was serially diluted from 100 μM to 0.2 nM and applied to MSC Npas2-LacZ. EC was determined by LacZ expression and IC was determined by cell viability using Calcein AM/Hoechst 33342 staining.

Structure (SMILES): COC(=O)[C@H]1[C@H]2C[C@@H]3c4[nH]c5cc(OC)ccc5c4CCN3C[C@H]2C[C@@H](OC(=O)c2cc(OC)c(OC)c(OC)c2)[C@@H]1OC [Reserpine]
- Expression of core clock gene Bmal1 ([1]; MSC, listed as Dwn1): did not affect; also recorded: not affected
- Expression of osteocalcin (Ocn) ([1]; day 21): significantly increased
- Expression of osteopontin (Opn) ([1]; day 21): mildly affected
- Expression of osteocalcin (Ocn) ([1]; day 21, listed as Dwn1): increased as early as D21; also recorded: accelerated expression
- Collagen gel contraction (fibroblasts): accelerates
- Fibroblast migration in scratch wound healing assay (fibroblasts): accelerates
- In vitro mineralization compared with BMP-2 supplementation ([2]; Dwn1 1 μM vs BMP-2 100 ng/ml): equivalent to BMP-2 (100 ng/ml) supplementation
- In vitro mineralization / osteogenic differentiation ([2]; Npas2+/− BMSC/MSC): reproducibly observed
- In vitro mineralization / osteogenic differentiation ([2]; Npas2+/− BMSC/MSC, listed as Dwn1): responded; also recorded: increased
- In vitro mineralization / osteogenic differentiation ([2]; Npas2−/− BMSC/MSC): did not modulate
- In vitro mineralization / osteogenic differentiation ([2]; wild type BMSC/MSC, osteogenic medium, alizarin red): increased alizarin red positive in vitro mineralization; also recorded: dose-dependently accelerated in vitro mineralization; also recorded: reproducibly observed
- In vitro mineralization / osteogenic differentiation ([2]; wild type BMSC/MSC, osteogenic medium, alizarin red, listed as Dwn1): increased dose-dependently; also recorded: dose dependently increased; also recorded: dose-dependently increased
- Picrosirius red staining (collagen fiber formation and accumulation) [3]: increase of a positive reaction
- Collagen deposition (Masson trichrome staining) (skin split wound): decreased excessive collage deposition; also recorded: very small area of collagen deposition
- Split wound healing / scarring (skin split wound): improved split wound healing with minimal scarring; also recorded: best wound healing
- Effective concentration (EC) (Npas2-LacZ expression): 0.5 to 10 µM
